Experimental data taken from EP0319906A2, “Novel quinoline derivatives, processes for preparation thereof and antibacterial agent containing them” (Dainippon Pharmaceutical Co., Ltd., priority 1987, dated 1989).

How the values were obtained:
Format in all cases: cell-based
[1] = system: C. Trachomatics G/ur 1242; assay: Antichlamydia activity, MIC in McCoy cells (inclusion bodies); settings: C. Trachomatics G/ur 1242; McCoy cells, 36 °C for 40-48 hours; calculated for free base; read-out: minimum inhibitory concentrations (MIC)
Protocol: (§1) The figures in the table show minimum inhibitory concentrations (MIC), (μg/ml), calculated for free base. Minimum inhibitory concentrations (MIC) were determined as follows. […] The cells were trypsinized and suspended in the same culture medium at a cell concentration of 1-2 x 10^5 cells/ml. One ml of the cell suspension was pipetted into flat-bottomed plastic tubes (14 mm in diameter) containing a cover slip (12 mm in diameter). The tubes were incubated in 5 % CO2-air at 36 °C for 20 hours. One-half ml of a chlamydial suspension (ca. 1-4 x 103 inclusion body forming units) was added into each tube, which was then centrifuged at 1500 x g for 60 minutes. The tubes were incubated for 1 hour at 36 °C. […] After further incubation at 36 °C for 40-48 hours, the cells on the cover glasses were stained with the Giemsa's solution. […] The MIC was defined as the lowest drug concentration where there were no inclusion bodies in all the cells on the cover slip.

[2] = system: C. Trachomatics G/ur 1317; assay: as above; settings: C. Trachomatics G/ur 1317; McCoy cells, 36 °C for 40-48 hours; calculated for free base; read-out: minimum inhibitory concentrations (MIC)
Protocol: as §1

C. Trachomatics G/ur 931 = assay: as above; settings: C. Trachomatics G/ur 931; McCoy cells, 36 °C for 40-48 hours; calculated for free base; read-out: minimum inhibitory concentrations (MIC)
Protocol: as §1

[3] = system: C. Trachomatics G/ur 1448; assay: as above; settings: C. Trachomatics G/ur 1448; McCoy cells, 36 °C for 40-48 hours; calculated for free base; read-out: minimum inhibitory concentrations (MIC)
Protocol: as §1

P. aeruginosa 12 = assay: In vitro antibacterial activity, twofold agar-dilution MIC; settings: Pseudomonas aeruginosa; P. aeruginosa 12; Mueller-Hinton agar, 20-hour incubation at 37 °C; calculated for free base; read-out: minimum inhibitory concentrations (MIC)
Protocol: (§2) The figures in the table show minimum inhibitory concentrations (MIC) (µg/ml), calculated for free base. […] One loopful of an overnight culture of test organisms in Mueller-Hinton broth was inoculated onto 10 ml drug- containing agar layers in petri dishes. Bacterial inocula contained approximately 10⁶ colonyl-forming units. […] The MIC was defined as the lowest drug concentration which prevented visible bacterial growth.

S. aureus No. 80 = assay: as above; settings: Staphylococcus aureus; S. aureus No. 80; Mueller-Hinton agar, 20-hour incubation at 37 °C; calculated for free base; read-out: minimum inhibitory concentrations (MIC)
Protocol: as §2

E. coli P-5101 = assay: as above; settings: Escherichia coli, P5101; E. coli P-5101; Mueller-Hinton agar, 20-hour incubation at 37 °C; calculated for free base; read-out: minimum inhibitory concentrations (MIC)
Protocol: as §2

S. aureus 209 JC-1 = assay: as above; settings: Staphylococcus aureus, 209JC1; S. aureus 209 JC-1; Mueller-Hinton agar, 20-hour incubation at 37 °C; calculated for free base; read-out: minimum inhibitory concentrations (MIC)
Protocol: as §2

E. coli NIHJ JC-2 = assay: as above; settings: Escherichia coli, NIHJJC2; E. coli NIHJ JC-2; Mueller-Hinton agar, 20-hour incubation at 37 °C; calculated for free base; read-out: minimum inhibitory concentrations (MIC)
Protocol: as §2

S. epidermidis No. 8 = assay: as above; settings: Staphylococcus epidermidis; S. epidermidis No. 8; Mueller-Hinton agar, 20-hour incubation at 37 °C; calculated for free base; read-out: minimum inhibitory concentrations (MIC)
Protocol: as §2

S. marcescens S-9 = assay: as above; settings: Serratia marcescens, S9; S. marcescens S-9; Mueller-Hinton agar, 20-hour incubation at 37 °C; calculated for free base; read-out: minimum inhibitory concentrations (MIC)
Protocol: as §2

S. pyogenes A65 = assay: as above; settings: Streptococcus pyogenes; S. pyogenes A65; Mueller-Hinton agar, 20-hour incubation at 37 °C; calculated for free base; read-out: minimum inhibitory concentrations (MIC)
Protocol: as §2

S. aureus Terajima = assay: as above; settings: Staphylococcus aureus; S. aureus Terajima; Mueller-Hinton agar, 20-hour incubation at 37 °C; calculated for free base; read-out: minimum inhibitory concentrations (MIC)
Protocol: as §2

M. orale CH-19299 = assay: Antimycoplasma activity, twofold agar dilution MIC; settings: po, 48 h; M. orale CH-19299; Chanock agar, 37 °C for 2 days, anaerobically; calculated for free base; read-out: minimum inhibitory concentrations (MIC)
Protocol: (§3) The figures in the table show minimum inhibitory concentrations (MIC), (μg/ml), calculated for free base. Minimum inhibitory concentrations (MIC) were determined by the twofold agar dilution method. The media used were Chanock broth and agar [PPLD broth and agar (Difco) supplemented with 20 % horse serum and 10 % fresh yeast extract]. A 2-3 day broth culture of organisms was diluted with Chanock broth to a cell density of about 10^6 cells/ml. One loopful (about […]) of the organism dilution was spotted onto 10-ml drug containing Chanock agar in petri dishes using a multiple inoculator ([…] International). […] Incubation was performed anaerobically using the […] anaerobic system (BBL) for M. buccale, M. fermentans, M. hominis, M. orale and M. salivarium, and aerobically for other Mycoplasma spp. The MIC was defined as the lowest compound concentration at which no growth of organism was detected.

M. fermentans PG-18 = assay: Antimycoplasma activity, twofold agar dilution MIC; settings: Mycoplasmopsis fermentans, PG18, 48 h; M. fermentans PG-18; Chanock agar, 37 °C for 2 days, anaerobically; calculated for free base; read-out: minimum inhibitory concentrations (MIC)
Protocol: as §3

M. arginini G-230 = assay: Antimycoplasma activity, twofold agar dilution MIC; settings: 48 h; M. arginini G-230; Chanock agar, 37 °C for 2 days, aerobically; calculated for free base; read-out: minimum inhibitory concentrations (MIC)
Protocol: as §3

M. hyorhinis BST-7 = assay: Antimycoplasma activity, twofold agar dilution MIC; settings: Mesomycoplasma hyorhinis, BST7, 48 h; M. hyorhinis BST-7; Chanock agar, 37 °C for 2 days, aerobically; calculated for free base; read-out: minimum inhibitory concentrations (MIC)
Protocol: as §3

M. salivarium PG-20 = assay: Antimycoplasma activity, twofold agar dilution MIC; settings: 48 h; M. salivarium PG-20; Chanock agar, 37 °C for 2 days, anaerobically; calculated for free base; read-out: minimum inhibitory concentrations (MIC)
Protocol: as §3

M. buccale CH-20249 = assay: Antimycoplasma activity, twofold agar dilution MIC; settings: 48 h; M. buccale CH-20249; Chanock agar, 37 °C for 2 days, anaerobically; calculated for free base; read-out: minimum inhibitory concentrations (MIC)
Protocol: as §3

M. hominis PG-21 = assay: Antimycoplasma activity, twofold agar dilution MIC; settings: Metamycoplasma hominis, PG21, 48 h; M. hominis PG-21; Chanock agar, 37 °C for 2 days, anaerobically; calculated for free base; read-out: minimum inhibitory concentrations (MIC)
Protocol: as §3

M. pneumoniae Mac = assay: Antimycoplasma activity, twofold agar dilution MIC; settings: Mycoplasmoides pneumoniae, 168 h; M. pneumoniae Mac; Chanock agar, 37 °C for 7 days, aerobically; calculated for free base; read-out: minimum inhibitory concentrations (MIC)
Protocol: as §3

A. laidlawii PG-8 = assay: Antimycoplasma activity, twofold agar dilution MIC; settings: Acholeplasma laidlawii, PG8, 48 h; A. laidlawii PG-8; Chanock agar, 37 °C for 2 days, aerobically; calculated for free base; read-out: minimum inhibitory concentrations (MIC)
Protocol: as §3

Measured: MIC

C[C@@H]1CN(c2c(F)cc3c(=O)c(C(=O)O)cn(C4CC4)c3c2F)C[C@H](C)N1 [Compound C, 1-cyclopropyl-6,8-difluoro-7-(cis-3,5-dimethyl-1-piperazinyl)-1,4-dihydro-4-oxoquinoline-3-carboxylic acid]
0.39 µg/mL: M. arginini G-230 | A. laidlawii PG-8
0.78 µg/mL: P. aeruginosa 12 | S. pyogenes A65 | M. orale CH-19299 | M. salivarium PG-20
0.1 µg/mL: S. aureus No. 80 | S. aureus 209 JC-1 | S. epidermidis No. 8 | S. aureus Terajima | M. fermentans PG-18 | M. hyorhinis BST-7
0.0125 µg/mL: E. coli P-5101 | E. coli NIHJ JC-2
0.2 µg/mL: all other assays above
